Experimental findings from ChEMBL document CHEMBL6153024, “A novel life for antitumor combretastatins: Recent developments of hybrids, prodrugs, combination therapies, and antibody-drug conjugates” (Eur J Med Chem, 2025) are described below.

The assay relates to HT-29. The experiment in a line: Anticancer activity against human HT-29 cells. The assay is classed as functional, cell-based. Conditions: pooled result: one value given for 4 cell lines, strains, targets or settings.

The compound `COc1ccc(C2=C(c3cc(I)c(OC)c(I)c3)C(=O)OC2)cc1` had an IC50 of 258 nM.

In general, IC50 refers to the midpoint of a concentration-inhibition curve.
